“Also recorded” adds a separate entry of the source. Bridge positions count the residues as written; N and C are the ends. Ends that are not written are not given here.
What was measured:
[1] = test system: heartbeat frequency in some insects; settings: 34 (so in the source); cited from earlier work
Source text: (§1) Also, these peptides are functionally inter-related. […] [33]. In M. sexta, AKH mobilize lipids from the fat body during flight or locomotion when heartbeat frequency also increases.

RhoprCCAPR [2] = test: Functional receptor expression (aequorin bioluminescence, calcium mobilization) assay in CHO-WTA11 cells; assay type: cell-based, Rhodnius prolixus; settings: for Activation of RhoprCCAPR (in words): CHO-WTA11 cells expressing RhoprCCAPR, bioluminescent response
Description: The coding region of RhoprCCAPR (1,128 bp) (RhoprCCAPR) was amplified from unfed 5th instar CNS cDNA with gene specific primers (Table 1C) using a Q5 High fidelity DNA polymerase (New England Biolabs, Pickering, ON). At the 5′ end before the ATG initiation codon, the Kozak translation initiation sequence ([…]) was introduced since this is required for optimal translation by eukaryotic ribosomes (Table 1C) [26]–[28]. The PCR product was run on a 0.8% agarose gel for 40 mins (160V) and the correct size of band was excised and purified (Promega, Madison, WI, USA). This was then subcloned into the pGEM T easy vector (Promega, Madison, WI) to verify its sequence. The insert with the Kozak sequence was excised using restriction enzyme (NotI) and subcloned into the expression vector, pcDNA™3.1(+) (Invitrogen, Carlsbad, CA) to express in Chinese hamster ovary (CHO-K1) WTA11, mammalian cells (Euroscreen S. A., Belgium; provided by Prof. Dr. M. Parmentier and Dr. M. Detheux; Brussels, Belgium).
RhoprCCAPR was transiently expressed in CHO-WTA11 cells that stably express promiscuous Gα16 and apoaequorin. This cell line has been used extensively for insect GPCR functional assays. The transfection was performed using X-treme HP DNA transfection reagent (Roche Applied Science, Indianapolis, IN) with the ratio of 3 (transfection reagent) to 1 (RhoprCCAPR/pcDNA™3.1(+) or empty pcDNA™3.1(+) vector) according to the manufacture’s protocol (Roche Applied Science, Indianapolis, IN). Cells were grown in the complete Dulbecco’s Modified Eagle Medium Nutrient Mixture F12-Ham (DMEM/F12, 10% fetal bovine serum, FBA, 100 IU/ml penicillin/streptomycin (Invitrogen, Carlsbad, CA)) in the 5% CO2 37°C incubator. After 48 hours, transfected cells were incubated with 5 µM Coelentarazine for 4 hours (Invitrogen, Carlsbad, CA) at room temperature in the dark. Interaction between ligand and the cloned RhoprCCAPR leads to a bioluminescent response that is mediated by the IP3/Ca^2+ signaling pathway. The luminescence assay was performed on opaque 96-well microplates (Corning, Lowell, MA). 50 µl of cells were introduced into each well of the 96-well plate that contained either controls or different concentration of peptides (RhoprCCAP, RhoprCorazonin, RhoprAKH and GNDNFMRFa) (Table 2) and the changes of luminescence were recorded for 20 sec. Wells only containing DMEM/0.1% BSA medium served as a negative control, while wells containing 50nM ATP served as a positive control. All luminescence values were corrected for background values from wells containing only DMEM/BSA medium and all values were calculated as maximum percentage difference. The response for each ligand concentration in replica wells and from at least three replica plates was averaged for analysis. GraphPad prism 5 (version 5.03) was used to analyze and generate the data.

corpora cardiaca = settings: 33 (so in the source); cited from earlier work
Source text: as §1

heart of R. prolixus = settings: cited from earlier work
CCAPR2 = settings: read-out: EC50, T. castaneum CCAPR2; cited from earlier work
Source text: (§2) The improved sensitivity of this cell line over CHO-K cells is due to presence of the promiscuous Gα proteins.

CCAP receptor (CG6111) = settings: read-out: EC50, D. melanogaster CCAP receptor (CG6111); cited from earlier work
Source text: as §2

CCAP receptor = settings: read-out: EC50, A. gambiae CCAP receptor; cited from earlier work
Source text: as §2

CCAPR1 = settings: read-out: EC50, T. castaneum CCAPR1; cited from earlier work
Source text: as §2

hindgut of R. prolixus = test system: hindgut of R. prolixus; parameters: method as in earlier work; settings: dose-dependent; ref 31 (so in the source); cited from earlier work
[3] = test system: heart rate in Drosophila melanogaster; settings: cited from earlier work
Source text: (§3) Crustacean cardioactive peptide (CCAP) is a cyclic nonapeptide that is conserved in arthropods. CCAP was first isolated as a cardioaccelerator from the pericardial organs of the shore crab, Carcinus maenas, [8]. Later, it was biochemically isolated from the nervous system of insects, [10]. The important functions of CCAP in insects have been well documented.

[4] = test system: heart rate in Manduca sexta; settings: cited from earlier work
Source text: as §3

[5] = test system: oviduct of Locusta migratoria; settings: cited from earlier work
Source text: as §3

RhoprCCAPR [6] = test: Calcium mobilization assay with RhoprCCAPR expressed in CHO-K1 cells; assay type: cell-based, Rhodnius prolixus; settings: without promiscuous Gα, read-out: EC50 using CHO-K1 cells
Description: To determine the endogenous ligand for the isolated putative RhoprCCAPR in R. prolixus, we used a calcium mobilization assay which expresses the RhoprCCAPR clone in CHO-K1 cells. […] The receptor was not activated by other peptides that were tested, including RhoprAKH, RhoprCorazonin and an extended RhoprFMRFa, GNDNFMRFa (Figure 5A, 5B, Table 2). […] Thus, our control data illustrate that the functional receptor assay system is only activated in cells that are transfected with RhoprCCAPR and not by any endogenous receptors in these CHO cells.

[7] = test system: dorsal vessel of R. prolixus; test: In vitro heartbeat (dorsal vessel preparation, impedance converter); parameters: species or system Rhodnius prolixus
Description: Adult R. prolixus were anesthetized with CO2 for 10 sec and 1 µl of 2 µg of dsCCAPR was injected into the thorax using a 5 µl Hamilton syringe to knock down RhoprCCAPR transcript levels. As a control, groups of R. prolixus were injected with either 1 µl of dsARG or had no injection. R. prolixus were left for 1 hour at room temperature to recover and then placed into an incubator at 28°C on a 16 h:8 h light/dark cycle.
In vitro heartbeat was monitored as described in Lee and Lange (2011) with minor modifications. The ventral cuticle, digestive and reproductive systems were dissected and removed under RNase free saline. The dorsal vessel and dorsal diaphragm remained attached to the dorsal cuticle. Then, the dorsal cuticle was placed onto a Sylgard-coated dissecting dish and covered with 100 µL of saline. Electrodes attached to an impedance converter (UFI model 2991, Morro Bay, CA, USA) were placed between the fifth and sixth abdominal segments on either side of the dorsal vessel anterior to the alary. The preparation was stabilized in 100 µL of saline for 10 min at room temperature, and then 50 µL of 10^−9M CCAP was exchanged for 50 µL of saline. Heartbeat frequency was measured from the traces observed on a Linear Flat-bed single channel chart recorder. The preparation was washed with saline for 5 mins post application of CCAP. Heartbeat frequency was determined for 1 min before and after the application of 10^−9M CCAP. The response to 10^−9M CCAP was quantified by measuring the increase in frequency compared to saline, which was then expressed as a percentage of the maximum change in frequency for each preparation. Pools of tissues including dorsal vessel/fat body/trachea were collected and the percentage of knockdown was measured by qPCR as indicated above.

[8] = test system: midgut α-amylase and protease activity; settings: cited from earlier work
Source text: as §3, with “documented. […] The CCAP may act in a paracrine manner, released from CCAP-containing midgut endocrine cells, [44].” for “documented.”

[9] = CHO-WTA11 cells stably expressing Gα16 and apoaequorin, luminescence recorded 20 sec, averaged from at least three replica plates

## pQTFQYSRGWTN-NH2 [Corazonin]
[1]
  Effect on heartbeat frequency in some insects: increase heartbeat frequency
RhoprCCAPR [2]
  Activation of RhoprCCAPR (in words): neither AKH nor corazonin activate the RhoprCCAPR
RhoprCCAPR [2]; listed as RhoprCorazonin
  Activation of RhoprCCAPR (in words): not activated
RhoprCCAPR [2]; [9]
  EC50 (M) RhoprCCAPR: Not active

## pQLTFSTDW-NH2 [RhoprAKH, adipokinetic hormone, pQLTFSTDW-NH2]
[1]
  Effect on heartbeat frequency in some insects: increase heartbeat frequency
RhoprCCAPR [2]
  Activation of RhoprCCAPR (in words): not activated
RhoprCCAPR [2]; listed as AKH
  Activation of RhoprCCAPR (in words): neither AKH nor corazonin activate the RhoprCCAPR
RhoprCCAPR [2]; [9]
  EC50 (M) RhoprCCAPR: Not active

## PFCNAFTGC-NH2 (disulfide 3-9 (inferred)) [RhoprCCAP]
Corpora cardiaca
  Effect on AKH release: influences AKH release
[1]
  Effect on heartbeat frequency in some insects: increase heartbeat frequency
Heart of R. prolixus; dose-dependent, ref 31 (so in the source)
  Effect on heartbeat frequency in the heart, R. prolixus (Discussion): increases heartbeat frequency and contraction in a dose-dependent manner
Heart of R. prolixus; in vitro, 5th instar
  Effect on heartbeat frequency, R. prolixus: increases heartbeat frequency in vitro; also recorded: increases the frequency of the heartbeat in R. prolixus in a reversible, dose-dependent manner
RhoprCCAPR [2]; [9]
  EC50: 12.2 nM
CCAPR2
  EC50: 22 nM
CCAP receptor (CG6111)
  EC50: 0.54 nM
CCAP receptor
  EC50: 1 nM
CCAPR1
  EC50: 624 nM
Hindgut of R. prolixus
  Effect on hindgut contraction: increases heartbeat frequency and contraction in a dose-dependent manner
[3]
  Effect on heart rate, D. melanogaster: triggers increasing heart rate
[4]
  Effect on heart rate, M. sexta: triggers increasing heart rate
[5]
  Effect on oviduct contractions: modulates oviduct contractions
RhoprCCAPR [6]
  EC50: 341 ± 8.8 nM
[7]; 10^−9 M CCAP, RhoprCCAPR knocked down by dsCCAPR, in vitro
  Effect of CCAP on heartbeat after RhoprCCAPR knockdown (in words): loss of function; also recorded: unresponsive; also recorded: eliminates the CCAP-induced increase in vitro; also recorded: cardioacceleratory effect is abolished
[7]; dsARG-treated bugs, saline baseline 10.4±2.9, paired t test p = 0.0376, vs dsCCAPR unpaired p = 0.0318, mean ± SEM, n = 5 (Figure 6)
  In vitro heartbeat frequency in the presence of 10^−9 M CCAP, dsARG treated bugs: 15.6±3.9 beats/min
[7]; dsCCAPR-treated bugs, saline baseline 5.4±3.0, paired t test p = 0.1688, vs dsARG unpaired p = 0.0318, mean ± SEM, n = 5 (Figure 6)
  In vitro heartbeat frequency in the presence of 10^−9 M CCAP, dsCCAPR treated bugs: 4.6±3.3 beats/min
[8]
  Effect on enzyme secretion, P. americana: regulates enzyme secretion
[8]; isolated midgut
  Effect on α-amylase and protease activity: increases α-amylase and protease activity

## GNDNFMRF-NH2 [ExtendedFMRFa]
RhoprCCAPR [2]; listed as GNDNFMRFa
  Activation of RhoprCCAPR (in words): not activated
RhoprCCAPR [2]; [9]
  EC50 (M) RhoprCCAPR: Not active

From article PMC3706402, “Identification and Expression of the CCAP Receptor in the Chagas’ Disease Vector, Rhodnius prolixus, and Its Involvement in Cardiac Control” (PLoS ONE, 2013)
